Experimental data from BigSolDB 2.1.

CN(Cc1ccccc1)CN1C(=O)C(=NNC(=O)c2ccccc2OCc2ccccc2)c2ccccc21
Conditions	solubility (mole fraction)
in PEG-400, 298.15 K	0.00711
in PEG-400, 303.15 K	0.00781
in PEG-400, 308.15 K	0.00887
in PEG-400, 313.15 K	0.00992
in PEG-400, 318.15 K	0.0114

solubility (mole fraction)
Conditions	in ethanol	in ethylene glycol	in isopropanol	in n-butanol	in propylene glycol	in sec-butanol	in transcutol	in water
298.15 K	0.000474	0.000304	0.000414	0.000759	0.000362	0.000808	0.00394	1.11e-06
303.15 K	0.000583	0.000416	0.00053	0.00091	0.000488	0.000968	0.00453	1.5e-06
308.15 K	0.000715	0.000536	0.000658	0.00106	0.000624	0.00113	0.00533	1.93e-06
313.15 K	0.000832	0.000671	0.000802	0.00122	0.000782	0.00129	0.00618	2.46e-06
318.15 K	0.000969	0.000809	0.000941	0.00138	0.000952	0.00145	0.00714	3e-06
